Reference: ChEMBL document CHEMBL4417631, “Oral peptide inhibitors of interleukin-23 receptor and their use to treat inflammatory bowel diseases” (2017)

Molecular target: T1, Interleukin-23 receptor (Homo sapiens, UniProt Q5VWK5)
T1 sequence (Q5VWK5 whole entry): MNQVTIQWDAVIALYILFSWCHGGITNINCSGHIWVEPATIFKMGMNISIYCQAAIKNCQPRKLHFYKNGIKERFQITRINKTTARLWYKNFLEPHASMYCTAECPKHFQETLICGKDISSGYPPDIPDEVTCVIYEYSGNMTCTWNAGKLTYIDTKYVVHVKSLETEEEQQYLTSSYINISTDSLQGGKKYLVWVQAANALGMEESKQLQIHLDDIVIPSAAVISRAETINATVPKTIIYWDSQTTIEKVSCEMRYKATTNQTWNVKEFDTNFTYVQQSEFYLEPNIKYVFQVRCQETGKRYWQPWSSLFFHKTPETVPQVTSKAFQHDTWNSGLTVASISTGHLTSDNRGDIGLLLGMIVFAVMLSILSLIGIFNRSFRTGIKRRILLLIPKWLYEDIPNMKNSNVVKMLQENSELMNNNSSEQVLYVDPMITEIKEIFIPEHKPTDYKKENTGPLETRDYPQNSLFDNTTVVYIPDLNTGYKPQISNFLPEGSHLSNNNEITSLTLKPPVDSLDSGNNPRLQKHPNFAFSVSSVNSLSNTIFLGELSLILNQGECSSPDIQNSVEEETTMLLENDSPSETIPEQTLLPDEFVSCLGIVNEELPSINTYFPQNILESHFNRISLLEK
Experiment: Inhibition of interleukin-23 binding to human interleukin-23 receptor incubated for 2 hrs by competitive binding ELISA

| SMILES | IC50 [nM] |
| --- | --- |
| CC(=O)N[C@@H](CS)C(=O)N[C@@H](C)C(=O)N[C@@H](CC(=O)O)C(=O)N[C@@H](Cc1c[nH]c2ccccc12)C(=O)N[C@H](C(=O)N[C@@H](CS)C(=O)N[C@@H](Cc1ccc(O)cc1)C(=O)N[C@@H](Cc1c[nH]c2ccccc12)C(=O)N[C@@H](Cc1cnc[nH]1)C(=O)N[C@H](C(=O)N[C@@H](Cc1ccccc1)C(=O)NCC(=O)N[C@@H](CC(=O)O)C(=O)N[C@@H](CCCCNC(=O)COCC(=O)NCCCC[C@H](NC(=O)[C@H](CC(=O)O)NC(=O)CNC(=O)[C@H](Cc1ccccc1)NC(=O)[C@@H](NC(=O)[C@H](Cc1cnc[nH]1)NC(=O)[C@H](Cc1c[nH]c2ccccc12)NC(=O)[C@H](Cc1ccc(O)cc1)NC(=O)[C@H](CS)NC(=O)[C@@H](NC(=O)[C@H](Cc1c[nH]c2ccccc12)NC(=O)[C@H](CC(=O)O)NC(=O)[C@H](C)NC(=O)[C@H](CS)NC(C)=O)C(C)C)[C@@H](C)O)C(=O)O)C(=O)O)[C@@H](C)O)C(C)C | 1000 to 10000 |
| CC(=O)N[C@@H](CS)C(=O)N[C@@H](CCCNC(=N)N)C(=O)N[C@H](C(=O)N[C@@H](Cc1c[nH]c2ccccc12)C(=O)N[C@@H](CCC(N)=O)C(=O)N[C@@H](CS)C(=O)N[C@@H](Cc1ccc(O)cc1)C(=O)N[C@@H](Cc1c[nH]c2ccccc12)C(=O)N[C@@H](CCCNC(=N)N)C(=O)N[C@@H](CCCCN)C(=O)N[C@@H](Cc1ccccc1)C(=O)NCC(=O)NCCOCC(=O)N[C@H](CCCCN)C(N)=O)[C@@H](C)O | < 500 |
| CC(=O)N[C@@H](CS)C(=O)N[C@@H](C)C(=O)N[C@@H](CC(=O)O)C(=O)N[C@@H](Cc1c[nH]c2ccccc12)C(=O)N[C@H](C(=O)N[C@@H](CS)C(=O)N[C@@H](Cc1ccc(O)cc1)C(=O)N[C@@H](Cc1cccc2ccccc12)C(=O)N[C@@H](Cc1cnc[nH]1)C(=O)NC(C)(C)C(=O)N[C@H](Cc1ccccc1)C(=O)NCC(N)=O)C(C)C | > 1000 |
| CC(C)[C@H](NC(=O)[C@H](Cc1c[nH]c2ccccc12)NC(=O)[C@H](CC(=O)O)NC(=O)[C@H](C)NC(=O)[C@@H](N)CS)C(=O)N[C@@H](CS)C(=O)N[C@@H](Cc1ccc(O)cc1)C(=O)N[C@@H](Cc1cccc2ccccc12)C(=O)N[C@@H](Cc1cnc[nH]1)C(=O)N[C@H](C(=O)N(C)[C@@H](Cc1ccccc1)C(N)=O)[C@@H](C)O | > 1000 |
| CC(=O)N[C@@H](CS)C(=O)N[C@@H](CCC(N)=O)C(=O)N[C@H](C(=O)N[C@@H](Cc1c[nH]c2ccccc12)C(=O)N[C@@H](CCC(N)=O)C(=O)N[C@@H](CS)C(=O)N[C@@H](Cc1ccc(O)cc1)C(=O)N[C@H](CC(=O)N[C@@H](CCCNC(=N)N)C(=O)N[C@H](C(=O)N[C@@H](CC(N)=O)C(=O)NCC(=O)NCCOCC(=O)N[C@H](CCCCN)C(N)=O)C(C)C)Cc1ccccc1)[C@@H](C)O | > 30000 |

Results, then the compound that gave them:

| IC50 [nM] | SMILES |
| --- | --- |
| > 1000 | CC(=O)N[C@@H](CS)C(=O)N[C@@H](CCCNC(=N)N)C(=O)N[C@@H](CC(=O)O)C(=O)N[C@@H](Cc1c[nH]c2ccccc12)C(=O)N[C@@H](CCC(N)=O)C(=O)N[C@@H](CS)C(=O)N[C@@H](Cc1ccc(O)cc1)C(=O)N[C@@H](Cc1c[nH]c2ccccc12)C(=O)N[C@@H](CCCNC(=N)N)C(=O)N[C@H](CCCCN)C(=O)N[C@@H](Cc1ccccc1)C(=O)NCC(=O)NCCOCCC(=O)N[C@H](CCCCN)C(N)=O |
| > 1000 | CC(=O)N[C@@H](CS)C(=O)N[C@@H](C)C(=O)N[C@@H](CC(=O)O)C(=O)N[C@@H](Cc1c[nH]c2ccccc12)C(=O)N[C@H](C(=O)N[C@@H](CS)C(=O)N[C@@H](Cc1ccc(O)cc1)C(=O)N[C@@H](Cc1ccc(-c2ccccc2)cc1)C(=O)N[C@@H](Cc1cnc[nH]1)C(=O)N[C@H](C(=O)N[C@@H](Cc1ccccc1)C(=O)NCC(=O)NCCOCC(=O)N[C@H](CCCCN)C(N)=O)[C@@H](C)O)C(C)C |
| < 500 | CC(=O)N[C@@H](CS)C(=O)N[C@@H](CCC(N)=O)C(=O)N[C@H](C(=O)N[C@@H](Cc1c[nH]c2ccccc12)C(=O)N[C@@H](CCC(N)=O)C(=O)N[C@@H](CS)C(=O)N[C@@H](Cc1ccc(O)cc1)C(=O)N[C@@H](Cc1c[nH]c2ccccc12)C(=O)N[C@@H](CCCNC(=N)N)C(=O)N[C@@H](CCCNC(=N)N)C(=O)N[C@@H](CC(N)=O)C(=O)NCC(=O)NCCOCC(=O)N[C@H](CCCCN)C(N)=O)[C@@H](C)O |
